Source: PubChem BioAssay AID330 (DTP/NCI, 2004)
“And” between values parts separate entries of the source, which are not always exact repeats. Equal entries are not always repeated. Toxic doses and inconclusive results are not listed.

Tested on: P388 leukemia ip, CD2F1 mice, survival T/C
Test: NCI In Vivo Anticancer Drug Screen. Data for tumor model P388 Leukemia (intraperitoneal) in CD2F1 (CDF1) mice
Settings: endpoint: median survival time, higher = longer survival
Summary of the method: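 Mice carrying the transplanted tumor received test compound or vehicle. Survival was recorded in each group, and the value is the treated-group measurement divided by that of the vehicle-treated control group.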

[1] = dose: 100.0 mg/kg/injection, schedule: Q01DX001 (ip), vehicle: saline
[2] = dose: 50.0 mg/kg/injection, schedule: Q01DX005 (ip), vehicle: saline
[3] = dose: 50.0 mg/kg/injection, schedule: Q01DX005 (ip), vehicle: Klucel (hydroxypropylcellulose) (HPC)
[4] = dose: 60.0 mg/kg/injection, schedule: Q01DX005 (ip), vehicle: saline with Tween-80
[5] = dose: 120.0 mg/kg/injection, schedule: Q01DX005 (ip), vehicle: saline with Tween-80
[6] = dose: 240.0 mg/kg/injection, schedule: Q01DX005 (ip), vehicle: saline with Tween-80
[7] = dose: 50.0 mg/kg/injection, schedule: Q01DX005 (ip), vehicle: saline with Tween-80
[8] = dose: 100.0 mg/kg/injection, schedule: Q01DX005 (ip), vehicle: saline with Tween-80
[9] = dose: 100.0 mg/kg/injection, schedule: Q01DX005 (ip), vehicle: Klucel (hydroxypropylcellulose) (HPC)
[10] = dose: 200.0 mg/kg/injection, schedule: Q01DX005 (ip), vehicle: Klucel (hydroxypropylcellulose) (HPC)
[11] = dose: 50.0 mg/kg/injection, schedule: Q01DX009 (ip), vehicle: saline with Tween-80
[12] = dose: 50.0 mg/kg/injection, schedule: Q01DX009 (ip), vehicle: saline
[13] = dose: 100.0 mg/kg/injection, schedule: Q01DX009 (ip), vehicle: saline
[14] = dose: 50.0 mg/kg/injection, schedule: Q01DX009 (ip), vehicle: Klucel (hydroxypropylcellulose) (HPC)
[15] = dose: 100.0 mg/kg/injection, schedule: Q01DX009 (ip), vehicle: Klucel (hydroxypropylcellulose) (HPC)
[16] = dose: 200.0 mg/kg/injection, schedule: Q01DX009 (ip), vehicle: Klucel (hydroxypropylcellulose) (HPC)

CC(C)CCCC(C)C1CCC2C3CCC4N(CCCl)CCCC4(C)C3CCC12C (stereo not given)
T/C (dose: 25.0 mg/kg/injection, schedule: Q01DX001 (ip), vehicle: saline): 100 % of control | T/C (dose: 50.0 mg/kg/injection, schedule: Q01DX001 (ip), vehicle: saline): 99 % of control | T/C [1]: 94 % of control

CN(C)CCC=C1c2ccccc2CCc2ccccc21
T/C (dose: 12.5 mg/kg/injection, schedule: Q01DX005 (ip), vehicle: saline): 101 % of control | T/C (dose: 25.0 mg/kg/injection, schedule: Q01DX005 (ip), vehicle: saline): 103 % of control | T/C [2]: 109 % of control and 116 % of control

N#Cc1nnc2cccc(Cl)n12
T/C (dose: 25.0 mg/kg/injection, schedule: Q01DX001 (ip), vehicle: Klucel (hydroxypropylcellulose) (HPC)): 96 % of control | T/C (dose: 50.0 mg/kg/injection, schedule: Q01DX001 (ip), vehicle: Klucel (hydroxypropylcellulose) (HPC)): 95 % of control | T/C (dose: 100.0 mg/kg/injection, schedule: Q01DX001 (ip), vehicle: Klucel (hydroxypropylcellulose) (HPC)): 97 % of control

CCN(CCO)CC(O)Cn1cnc2ncnc(N)c21 (stereo not given) (tested in a mixture with another compound)
T/C (dose: 60.0 mg/kg/injection, schedule: Q01DX005 (ip), vehicle: Klucel (hydroxypropylcellulose) (HPC)): 97 % of control | T/C (dose: 120.0 mg/kg/injection, schedule: Q01DX005 (ip), vehicle: Klucel (hydroxypropylcellulose) (HPC)): 94 % of control | T/C (dose: 240.0 mg/kg/injection, schedule: Q01DX005 (ip), vehicle: Klucel (hydroxypropylcellulose) (HPC)): 95 % of control

CC(NNC(=S)N1CCN(c2ccccn2)CC1)c1ccccn1 (stereo not given)
T/C (dose: 12.5 mg/kg/injection, schedule: Q01DX005 (ip), vehicle: Klucel (hydroxypropylcellulose) (HPC)): 99 % of control | T/C (dose: 25.0 mg/kg/injection, schedule: Q01DX005 (ip), vehicle: Klucel (hydroxypropylcellulose) (HPC)): 101 % of control | T/C [3]: 109 % of control and 95 % of control

CC(C)C1OCC(CO)([N+](=O)[O-])CO1 (stereo not given)
T/C [4]: 102 % of control | T/C [5]: 100 % of control | T/C [6]: 93 % of control

COc1ccccc1NC(=S)N/N=C\c1cc(N=Nc2ccccc2)cc(OC)c1O
T/C [7]: 89 % of control | T/C [8]: 89 % of control

CC(=O)OCc1c([O-])on[n+]1-c1ccccc1
T/C [3]: 100 % of control | T/C [9]: 102 % of control | T/C [10]: 102 % of control

O=c1c(Cc2ccc(Cl)cc2)coc2ccccc12
T/C [4]: 94 % of control | T/C [5]: 94 % of control | T/C [6]: 101 % of control

Nc1nc(N)c2nc3c(nc2n1)C(=O)N(c1ccc(C(=O)O)cc1)C3
T/C (dose: 6.25 mg/kg/injection, schedule: Q01DX009 (ip), vehicle: saline with Tween-80): 106 % of control | T/C (dose: 12.5 mg/kg/injection, schedule: Q01DX009 (ip), vehicle: saline with Tween-80): 115 % of control | T/C (dose: 25.0 mg/kg/injection, schedule: Q01DX009 (ip), vehicle: saline with Tween-80): 117 % of control | T/C [11]: 108 % of control

O=C(Cc1nc2ccccc2n2nnnc12)NCCO
T/C (dose: 100.0 mg/kg/injection, schedule: Q04DX002 (ip), vehicle: Klucel + Tween-80): 99 % of control | T/C (dose: 200.0 mg/kg/injection, schedule: Q04DX002 (ip), vehicle: Klucel + Tween-80): 88 % of control | T/C (dose: 400.0 mg/kg/injection, schedule: Q04DX002 (ip), vehicle: Klucel + Tween-80): 92 % of control

CCOC(=O)C(C)NO (stereo not given)
T/C [12]: 97 % of control | T/C [13]: 94 % of control

CC(=O)OC1c2c(C)coc2C(=O)C23OC2CCC(C)C13C (stereo not given)
T/C (dose: 5.0 mg/kg/injection, schedule: Q01DX009 (ip), vehicle: saline with Tween-80): 100 % of control | T/C (dose: 10.0 mg/kg/injection, schedule: Q01DX009 (ip), vehicle: saline with Tween-80): 102 % of control | T/C (dose: 20.0 mg/kg/injection, schedule: Q01DX009 (ip), vehicle: saline with Tween-80): 102 % of control | T/C (dose: 40.0 mg/kg/injection, schedule: Q01DX009 (ip), vehicle: saline with Tween-80): 96 % of control

CCN(CC)CCOC(=O)c1c(C)cc(C)cc1C
T/C (dose: 25.0 mg/kg/injection, schedule: Q04DX003 (ip), vehicle: saline): 100 % of control | T/C (dose: 50.0 mg/kg/injection, schedule: Q04DX003 (ip), vehicle: saline): 106 % of control | T/C (dose: 100.0 mg/kg/injection, schedule: Q04DX003 (ip), vehicle: saline): 93 % of control

COC(=O)Nn1cc(C(C(C)=O)C(C)=O)c(C(C)=O)c1C
T/C [3]: 99 % of control | T/C [9]: 89 % of control

CSC(SC)(C(=O)O)c1cc(-c2c(Cl)cccc2Cl)no1
T/C [4]: 93 % of control | T/C [5]: 102 % of control

CCOC1OCN(CCCN(C)C)CC1(C)C (stereo not given)
T/C [11]: 108 % of control | T/C (dose: 100.0 mg/kg/injection, schedule: Q01DX009 (ip), vehicle: saline with Tween-80): 123 % of control | T/C (dose: 200.0 mg/kg/injection, schedule: Q01DX009 (ip), vehicle: saline with Tween-80): 123 % of control

CC(C)(C)C(=O)OCCOCCOC(=O)c1ccccc1
T/C [14]: 95 % of control | T/C [15]: 104 % of control | T/C [16]: 102 % of control

CCN(CC)C(=S)Oc1cc(C)nc(SCC(=O)c2ccc(Cl)cc2)n1
T/C [14]: 108 % of control | T/C [15]: 100 % of control | T/C [16]: 103 % of control

On1cccc2c(Br)cnc1-2
T/C (dose: 100.0 mg/kg/injection, schedule: Q01DX001 (ip), vehicle: saline with Tween-80): 98 % of control | T/C (dose: 200.0 mg/kg/injection, schedule: Q01DX001 (ip), vehicle: saline with Tween-80): 99 % of control | T/C (dose: 400.0 mg/kg/injection, schedule: Q01DX001 (ip), vehicle: saline with Tween-80): 90 % of control

CCOC(=O)CN=Cc1ccccc1
T/C [4]: 107 % of control | T/C [5]: 108 % of control | T/C [6]: 107 % of control

CCc1nc(N)nc(N)c1-c1ccc(Cl)c(N=NN(C)C)c1
T/C [7]: 92 % of control | T/C [8]: 97 % of control | T/C (dose: 200.0 mg/kg/injection, schedule: Q01DX005 (ip), vehicle: saline with Tween-80): 105 % of control

CCCCCCCCC(=O)N1SC(NC(=O)OC)=Nc2ccccc21
T/C (dose: 50.0 mg/kg/injection, schedule: Q01DX005 (ip), vehicle: acetone): 98 % of control | T/C (dose: 100.0 mg/kg/injection, schedule: Q01DX005 (ip), vehicle: acetone): 93 % of control | T/C (dose: 200.0 mg/kg/injection, schedule: Q01DX005 (ip), vehicle: acetone): 111 % of control

O=c1cc[nH]c(=O)n1C1OC(CO)C(O)C1O (stereo not given)
T/C [2]: 108 % of control | T/C (dose: 100.0 mg/kg/injection, schedule: Q01DX005 (ip), vehicle: saline): 99 % of control | T/C (dose: 200.0 mg/kg/injection, schedule: Q01DX005 (ip), vehicle: saline): 102 % of control | T/C (dose: 400.0 mg/kg/injection, schedule: Q01DX005 (ip), vehicle: saline): 98 % of control

O=C1OC2=C(CCc3nc(-c4ccccc4)sc32)C(N(c2ccccc2)c2ccccc2)C1(Cl)Cl (stereo not given)
T/C [3]: 96 % of control | T/C [9]: 90 % of control | T/C [10]: 86 % of control

CC1CC(c2ccccc2)C(c2ccccc2Cl)C(=O)O1 (stereo not given)
T/C (dose: 100.0 mg/kg/injection, schedule: Q04DX002 (ip), vehicle: Klucel (hydroxypropylcellulose) (HPC)): 101 % of control | T/C (dose: 200.0 mg/kg/injection, schedule: Q04DX002 (ip), vehicle: Klucel (hydroxypropylcellulose) (HPC)): 96 % of control | T/C (dose: 400.0 mg/kg/injection, schedule: Q04DX002 (ip), vehicle: Klucel (hydroxypropylcellulose) (HPC)): 96 % of control

CCCCCC(=O)OCCN1CCN(CCCN2c3ccccc3Sc3ccc(C(F)(F)F)cc32)CC1
T/C (dose: 12.5 mg/kg/injection, schedule: Q01DX009 (ip), vehicle: Klucel (hydroxypropylcellulose) (HPC)): 113 % of control | T/C (dose: 25.0 mg/kg/injection, schedule: Q01DX009 (ip), vehicle: Klucel (hydroxypropylcellulose) (HPC)): 101 % of control

CC(=O)OC1CCC2C3C=CC4=C/C(=N/NC(N)=S)CCC4(C)C3CCC12C (stereo not given)
T/C [1]: 100 % of control | T/C (dose: 200.0 mg/kg/injection, schedule: Q01DX001 (ip), vehicle: saline): 98 % of control | T/C (dose: 400.0 mg/kg/injection, schedule: Q01DX001 (ip), vehicle: saline): 99 % of control

CCN(CCCO)CCCO
T/C [12]: 102 % of control | T/C [13]: 93 % of control | T/C (dose: 200.0 mg/kg/injection, schedule: Q01DX009 (ip), vehicle: saline): 95 % of control
